# Assay results from patent US12559529B2, “NPY2 receptor agonists” (Boehringer Ingelheim International GmbH, priority 2019, dated 2026).
# Molecular target: T1, Human Neuropeptide Y2 Receptor (Homo sapiens, UniProt P49146)
# T1 construct: purchased CHEMICON HTS066M
# T1 sequence (P49146 1-381): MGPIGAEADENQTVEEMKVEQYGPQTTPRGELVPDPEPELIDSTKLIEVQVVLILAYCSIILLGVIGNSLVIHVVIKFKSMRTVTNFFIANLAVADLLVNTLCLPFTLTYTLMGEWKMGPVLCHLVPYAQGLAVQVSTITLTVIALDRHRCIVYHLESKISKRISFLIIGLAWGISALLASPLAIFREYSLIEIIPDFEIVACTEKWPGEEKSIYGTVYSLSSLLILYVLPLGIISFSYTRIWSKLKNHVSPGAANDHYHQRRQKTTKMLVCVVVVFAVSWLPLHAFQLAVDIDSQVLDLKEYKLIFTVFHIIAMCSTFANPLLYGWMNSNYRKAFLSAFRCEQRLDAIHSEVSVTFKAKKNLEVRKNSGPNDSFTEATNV
# Assay: Radioligand binding competition assay (RLB)
# Conditions: Table 3; human 125I-PYY (1-36) 0.02 nM, Y2 receptor membranes; read-out: Ki
# How it was run: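 Competition binding on human Y2 receptor membranes, 0.5 μg protein/well, in 50 mM HEPES, 5 mM MgCl2, 1 mM CaCl2, pH 7.4, 0.2% ovalbumin; peptides diluted from 1 mM DMSO stocks.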
row,Ki [nM],SMILES
1,3.45,"CC(C)CC(=O)N[C@@H](C)C(=O)N1CCC[C@H]1C(=O)N[C@@H](CCC(=O)O)C(=O)N[C@@H](CCCCNC(=O)COCCOCCNC(=O)COCCOCCNC(=O)CC[C@H](NC(=O)CCCCCCCCCCCCCCCCC(=O)O)C(=O)O)C(=O)N1CCC[C@H]1C(=O)N[C@@H](CCC(=O)O)C(=O)N[C@@H](CCC(=O)O)C(=O)N[C@@H](CC(=O)O)C(=O)NCC(=O)N[C@@H](CO)C(=O)N1CCC[C@H]1C(=O)N[C@@H](CCC(=O)O)C(=O)N[C@@H](CCC(=O)O)C(=O)N[C@@H](CC(C)C)C(=O)N[C@@H](CCC(N)=O)C(=O)N[C@@H](CCCNC(=N)N)C(=O)N[C@@H](Cc1ccc(O)cc1)C(=O)N[C@@H](Cc1ccc(O)cc1)C(=O)N[C@H](C(=O)N[C@@H](CCC(=O)O)C(=O)N[C@@H](CC(C)C)C(=O)N[C@@H](CCCNC(=N)N)C(=O)N[C@@H](Cc1c[nH]cn1)C(=O)N[C@@H](Cc1ccc(O)cc1)C(=O)N[C@@H](Cc1ccc(O)cc1)C(=O)N[C@@H](CC(N)=O)C(=O)N[C@@H](Cc1c[nH]c2ccccc12)C(=O)N[C@@H](CC(C)C)C(=O)N[C@H](C(=O)N[C@@H](CCCNC(=N)N)C(=O)N[C@@H](CCC(N)=O)C(=O)N[C@@H](CCCNC(=N)N)C(=O)N[C@@H](Cc1ccc(O)cc1)C(N)=O)[C@@H](C)O)C(C)C [Compound 182, N{alpha-4}-(3-methylbutanoyl)-N{epsilon-7}-[2-(2-{2-[2-(2-{2-[(4S)-4-carboxy-4-(17-carboxyheptadecanamido)butanamido]ethoxy}ethoxy)acetamido]ethoxy}ethoxy)acetamido]-[4A,7K,9E,12G,18Q,22V,23E,28Y,30W,31L]hPYY (4-36)]"
2,0.7,"CC(C)CC(=O)N[C@@H](C)C(=O)N1CCC[C@H]1C(=O)N[C@@H](CCC(=O)O)C(=O)N[C@@H](CCCCNC(=O)COCCOCCNC(=O)COCCOCCNC(=O)CC[C@H](NC(=O)CCCCCCCCCCCCCCCCC(=O)O)C(=O)O)C(=O)N1CCC[C@H]1C(=O)N1CCC[C@H]1C(=O)N[C@@H](CCC(=O)O)C(=O)N[C@@H](CC(=O)O)C(=O)N[C@@H](C)C(=O)N[C@@H](CO)C(=O)N1CCC[C@H]1C(=O)N[C@@H](CCC(=O)O)C(=O)N[C@@H](CCC(=O)O)C(=O)N[C@@H](CC(C)C)C(=O)N[C@@H](CCC(N)=O)C(=O)N[C@@H](CCCNC(=N)N)C(=O)N[C@@H](Cc1ccc(O)cc1)C(=O)N[C@@H](Cc1ccc(O)cc1)C(=O)N[C@H](C(=O)N[C@@H](CO)C(=O)N[C@@H](CC(C)C)C(=O)N[C@@H](CCCNC(=N)N)C(=O)N[C@@H](Cc1c[nH]cn1)C(=O)N[C@@H](Cc1ccc(O)cc1)C(=O)N[C@@H](Cc1ccc(O)cc1)C(=O)N[C@@H](CC(N)=O)C(=O)N[C@@H](Cc1c[nH]c2ccccc12)C(=O)N[C@@H](CC(C)C)C(=O)N[C@H](C(=O)N[C@@H](CCCNC(=N)N)C(=O)N[C@@H](CCC(N)=O)C(=O)N[C@@H](CCCNC(=N)N)C(=O)N[C@@H](Cc1ccc(O)cc1)C(N)=O)[C@@H](C)O)C(C)C [Compound 183, N{alpha-4}-(3-methylbutanoyl)-N{epsilon-7}-[2-(2-{2-[2-(2-{2-[(4S)-4-carboxy-4-(17-carboxyheptadecanamido)butanamido]ethoxy}ethoxy)acetamido]ethoxy}ethoxy)acetamido]-[4A,7K,9P,18Q,22V,28Y,30W,31L]hPYY (4-36)]"
